IC50 and stoichiometry N data for two compounds are collected here from publication PMC10771415, “Mechanism of anion exchange and small-molecule inhibition of pendrin” (Nature Communications, 2024).

The IC50 is the point on the concentration scale where inhibition reaches its midpoint. High values mean a need for much substance, low ones inhibition by little substance. Usually stoichiometry N stands for the number of molecules, sites or subunits per partner or assembly.

Assay [1] deals with pendrin (ssPendrin, SLC26A4) (Sus scrofa, UniProt A0A480E679, T224V). Briefly: inhibition of […]-HCO3- uptake in proteoliposomes of purified mutant. Type of assay: biochemical.
The target of assay [2] is pendrin (ssPendrin, SLC26A4) (Sus scrofa, UniProt A0A480E679, Q101L). The assay is described as above. The format is biochemical.
For assay [3], the target named is pendrin (ssPendrin, SLC26A4) (Sus scrofa, UniProt A0A480E679, Q101L/T224A). Described as above. Type of assay: biochemical.
Assay [4] concerns the target T1, pendrin (ssPendrin, SLC26A4) (Sus scrofa, UniProt A0A480E679).
T1 construct: C-terminal TEV site and 8x His-tag
T1 sequence (A0A480E679 1-780): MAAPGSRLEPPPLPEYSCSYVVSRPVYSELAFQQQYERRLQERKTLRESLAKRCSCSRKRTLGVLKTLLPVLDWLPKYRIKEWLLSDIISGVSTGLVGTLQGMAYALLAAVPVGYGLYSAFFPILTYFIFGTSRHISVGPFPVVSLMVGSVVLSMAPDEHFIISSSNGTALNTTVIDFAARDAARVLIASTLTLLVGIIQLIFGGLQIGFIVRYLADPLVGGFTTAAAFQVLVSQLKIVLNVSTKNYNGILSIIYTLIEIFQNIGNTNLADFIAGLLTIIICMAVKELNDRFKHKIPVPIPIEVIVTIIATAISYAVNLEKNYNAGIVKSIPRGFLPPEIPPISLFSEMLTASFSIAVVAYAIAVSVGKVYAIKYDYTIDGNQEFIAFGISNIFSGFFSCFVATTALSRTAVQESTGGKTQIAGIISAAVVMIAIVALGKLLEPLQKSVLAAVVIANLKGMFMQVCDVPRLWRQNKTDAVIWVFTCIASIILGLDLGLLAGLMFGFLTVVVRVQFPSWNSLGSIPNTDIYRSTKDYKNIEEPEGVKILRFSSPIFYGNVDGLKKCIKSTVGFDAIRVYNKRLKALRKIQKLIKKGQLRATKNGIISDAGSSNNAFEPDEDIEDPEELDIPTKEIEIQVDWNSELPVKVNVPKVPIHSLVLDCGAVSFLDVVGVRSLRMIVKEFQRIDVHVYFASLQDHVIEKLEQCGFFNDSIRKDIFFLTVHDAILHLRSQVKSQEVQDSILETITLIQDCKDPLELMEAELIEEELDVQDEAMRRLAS
Briefly: cryo-EM structure at […] Å; inhibition of […]-HCO3- uptake in proteoliposomes of purified protein. The format is biochemical.

The target in assay [5] is pendrin from Sus scrofa (ssPendrin) (Sus scrofa). Kind of assay: cryo-EM structure; purified ssPendrin in 20 mM HEPES pH 7.5, 2 mM BME, 0.02% GDN with 150 mM NaCl, NaI, NaHCO3 or Na gluconate, or 150 mM NaCl and 10 mM NFA; refined with C2 symmetry.

Chain of pendrin (ssPendrin, SLC26A4) (Sus scrofa, UniProt A0A480E679, Q101L) (A0A480E679 entry or part of it Q101L): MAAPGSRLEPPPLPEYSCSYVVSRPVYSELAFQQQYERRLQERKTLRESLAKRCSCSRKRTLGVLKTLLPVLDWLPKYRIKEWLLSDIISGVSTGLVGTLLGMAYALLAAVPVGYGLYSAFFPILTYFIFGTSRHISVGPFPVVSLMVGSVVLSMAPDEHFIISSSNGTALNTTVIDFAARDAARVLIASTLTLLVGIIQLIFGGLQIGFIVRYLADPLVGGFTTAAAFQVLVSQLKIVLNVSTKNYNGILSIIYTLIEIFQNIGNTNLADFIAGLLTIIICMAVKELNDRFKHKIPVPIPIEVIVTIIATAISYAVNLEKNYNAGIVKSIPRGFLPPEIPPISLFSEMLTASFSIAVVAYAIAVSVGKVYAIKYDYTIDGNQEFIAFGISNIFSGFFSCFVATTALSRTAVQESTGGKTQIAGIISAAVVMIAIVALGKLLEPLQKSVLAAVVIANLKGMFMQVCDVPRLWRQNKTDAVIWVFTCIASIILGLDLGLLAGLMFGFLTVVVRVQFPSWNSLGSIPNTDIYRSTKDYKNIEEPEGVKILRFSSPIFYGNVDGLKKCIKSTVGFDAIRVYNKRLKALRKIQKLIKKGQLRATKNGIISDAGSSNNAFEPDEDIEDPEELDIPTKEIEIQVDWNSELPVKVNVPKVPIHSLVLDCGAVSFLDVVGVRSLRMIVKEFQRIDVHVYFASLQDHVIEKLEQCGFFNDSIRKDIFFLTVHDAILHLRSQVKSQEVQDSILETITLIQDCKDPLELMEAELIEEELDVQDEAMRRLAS
Chain of pendrin (ssPendrin, SLC26A4) (Sus scrofa, UniProt A0A480E679, Q101L/T224A) (A0A480E679 entry or part of it Q101L/T224A): as the sequence (A0A480E679 entry or part of it Q101L) above, with T224A counted along it
Chain of pendrin (ssPendrin, SLC26A4) (Sus scrofa, UniProt A0A480E679, T224V) (A0A480E679 entry or part of it T224V): as the sequence (A0A480E679 entry or part of it Q101L) above, with L101Q, T224V counted along it

Turning to `O=C(O)c1cccnc1Nc1cccc(C(F)(F)F)c1` [NFA, niflumic acid], the 50% inhibitory concentration (IC50) is 9.5 µM in assay [1], 31.2 µM in assay [2], 16.3 µM in assay [3] and 15.5 ± 1.5 µM in assay [4].
For the compound “pendrin from Sus scrofa (ssPendrin) (natural protein)”, the stoichiometry N in assay [5] was determined as 2.
